Reference: US11596611B2, “Hepatitis B antiviral agents” (ENANTA PHARMACEUTICALS, INC., priority 2017, dated 2023)

What was measured:
HBV = assay: HepAD38 antiviral assay: reduction of viral product accumulation (virion DNA by qPCR, HBsAg or HBeAg by ELISA); type: cell-based, hepatitis B virus; settings: Hepatitis B virus, 120 h; HepAD38 cells, five days after compound addition; 50% reduction of viral product vs no drug controls; read-out: HepAD38 EC50
Procedure, shortened: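 Tetracycline-free HepAD38 cells exposed to compound (DMSO stock diluted 1:200) for 5 days, or 8 days with media and compound refreshed on d2 and d5. Virion DNA quantified by qPCR after lysis; HBsAg or HBeAg measured by ELISA on diluted samples.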

[1] = Compound toxicity by ATPLite (total ATP levels); type: cell-based; settings: human, three days after compound addition, 50% reduction of total ATP
Method: Methods: HepAD38 cells are maintained as previously reported (Ladner et al, Antimicrob. Agents Chemother. 1997, […], 1715). Briefly, cells are passaged upon attaining confluency in DMEM/F12 media in the presence of 10% FBS, Penn/Strep, 250 μg/mL G418, and 1 ug/ml tetracycline. Novel compounds are screened by first washing cells three times with PBS to remove tetracycline, and plating in 96 well plates at 35,000 cells/well. Compounds dissolved in DMSO are then diluted 1:200 into wells containing cells. Five days after compound addition, material is harvested for analysis. For an extended 8 days analysis, cells are plated and treated as described above, but media and compound are refreshed on d2 and d5 post initial treatment.
Compound toxicity is evaluated by seeding cells at 15,000 cells/well and treating with compound as described above.

Structure (SMILES)	EC50 (HBV) [nM]	CC50 at 3 days ([1]; class symbols) [nM]	CC50 at 3 days ([1]; numeric bounds) [nM]
CC(C)(O)C[C@@]1(O)C2CC[C@H]1C[C@H](S(=O)(=O)c1cc(C(=O)Nc3ccc(F)c(F)c3)ccc1Cl)C2 [Example 193]	< 104	> 25000	–
C[C@H](O)[C@@H](O)[C@]1(O)C2CCC1C[C@@H](S(=O)(=O)c1cc(C(=O)Nc3ccc(F)c(F)c3)ccc1Cl)C2 (single isomer, unassigned) [Example 182]	< 104	> 25000	–
COC[C@@H](O)COC[C@]1(O)C2CCC1C[C@@H](S(=O)(=O)c1cc(C(=O)Nc3cc(F)c(F)c(F)c3)ccc1Cl)C2 [Example 122]	< 104	> 25000	–
C[C@@H](O)CNC(=O)C[C@]1(O)C2CCC1C[C@@H](S(=O)(=O)c1cc(C(=O)Nc3ccc(F)c(F)c3)ccc1Cl)C2 [Example 186]	< 104	–	> 12500
Cc1cccc(C(O)[C@@]2(O)C3CC[C@H]2C[C@H](S(=O)(=O)c2cc(C(=O)Nc4ccc(F)c(F)c4)ccc2Cl)C3)n1 (stereo partly shown) [Example 294]	< 104	> 25000	–
C[C@@H](O)[C@H](O)COC[C@]1(O)C2CCC1C[C@@H](S(=O)(=O)c1cc(C(=O)Nc3cc(F)c(F)c(F)c3)ccc1Cl)C2 [Example 36]	< 104	> 25000	–
Cc1ccnc(C(O)[C@@]2(O)C3CC[C@H]2C[C@H](S(=O)(=O)c2cc(C(=O)Nc4ccc(F)c(F)c4)ccc2Cl)C3)c1 (stereo partly shown) [Example 296]	< 104	> 25000	–
O=C(Nc1ccc(F)c(F)c1)c1ccc(Cl)c(S(=O)(=O)[C@H]2CC3CCC(C2)[C@]3(O)C(O)Cc2ccccn2)c1 (stereo partly shown) [Example 319]	< 104	> 25000	–
C[C@H](O)C(=O)[C@]1(O)C2CCC1C[C@@H](S(=O)(=O)c1cc(C(=O)Nc3ccc(F)c(F)c3)ccc1Cl)C2 [Example 345]	< 104	> 25000	–
O=C(Nc1ccc(F)c(F)c1)c1ccc(Cl)c(S(=O)(=O)[C@H]2CC3CCC(C2)[C@]3(O)[C@H](O)c2cccnc2)c1 (single isomer, unassigned) [Example 285b]	< 104	> 25000	–
CO[C@H](C)CNC(=O)C[C@]1(O)C2CCC1C[C@@H](S(=O)(=O)c1cc(C(=O)Nc3ccc(F)c(F)c3)ccc1Cl)C2 [Example 189]	< 104	–	> 12500
COC(=O)[C@H]1O[C@@H](OC[C@@]2(O)C3CC[C@H]2C[C@H](S(=O)(=O)c2cc(C(=O)Nc4ccc(F)c(F)c4)ccc2Cl)C3)[C@H](OC(C)=O)[C@@H](OC(C)=O)[C@@H]1OC(C)=O [Example 329]	< 104	> 25000	–
O=C(Nc1cc(F)c(F)c(F)c1)c1ccc(Cl)c(S(=O)(=O)[C@H]2CC3CCC(C2)[C@]3(O)CC(=O)N2CC(O)C2)c1 [Example 92]	< 104	–	> 6250
O=C(Nc1ccc(F)c(F)c1)c1ccc(Cl)c(S(=O)(=O)[C@@H]2CC3CC[C@@H](C2)[C@@]3(O)C(O)c2cnoc2)c1 (stereo partly shown) [Example 303]	< 104	> 25000	–
CC(C)=CCNC(=O)C[C@]1(O)C2CCC1C[C@@H](S(=O)(=O)c1cc(C(=O)Nc3cc(F)c(F)c(F)c3)ccc1Cl)C2 [Example 52]	< 104	> 25000	–
O=C(C[C@]1(O)C2CCC1C[C@@H](S(=O)(=O)c1cc(C(=O)Nc3cc(F)c(F)c(F)c3)ccc1Cl)C2)N[C@H]1CCOC1 [Example 72]	< 104	–	> 3000
O=C(Nc1ccc(F)c(F)c1)c1ccc(Cl)c(S(=O)(=O)[C@H]2CC3CCC(C2)[C@]3(O)CNC(=O)c2ncco2)c1 [Example 167]	< 104	–	> 12500
CC(=O)C[C@@]1(O)C2CC[C@H]1C[C@H](S(=O)(=O)c1cc(C(=O)Nc3ccc(F)c(F)c3)ccc1Cl)C2 [Example 215]	< 104	> 25000	–
O=C(Nc1ccc(F)c(F)c1)c1ccc(Cl)c(S(=O)(=O)[C@H]2CC3CCC(C2)[C@]3(O)C(O)Cc2ccncc2)c1 (stereo partly shown) [Example 317]	< 104	> 25000	–
CC(C)(O)C1CN(C(=O)C[C@]2(O)C3CCC2C[C@@H](S(=O)(=O)c2cc(C(=O)Nc4cc(F)c(F)c(F)c4)ccc2Cl)C3)C1 [Example 93]	< 104	–	> 6250
O=C(Nc1ccc(F)c(F)c1)c1ccc(Cl)c(S(=O)(=O)[C@H]2CC3CCC(C2)[C@]3(O)[C@@H](O)c2cccnc2)c1 (single isomer, unassigned) [Example 285a]	< 104	> 25000	–
CC(=O)N(C[C@@H](C)O)C[C@]1(O)C2CCC1C[C@@H](S(=O)(=O)c1cc(C(=O)Nc3cc(F)c(F)c(F)c3)ccc1Cl)C2 [Example 126]	< 104	–	> 6250
C[C@H](O)C(=O)NC[C@]1(O)C2CCC1C[C@@H](S(=O)(=O)c1cc(C(=O)Nc3cc(F)c(F)c(F)c3)ccc1Cl)C2 [Example 13]	< 104	–	> 6250
